Experimental data: ChEMBL document CHEMBL1201862, “PubChem BioAssay data set” (2004)
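Test compounds were applied to cells in 96-well plates for 48 hours at 5 doses. GI50 = concentration required for 50% inhibition of growth.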 The source made the active and inactive calls. Cut-off read from the data, not from the text of the source: active = GI50 up to about 1.1 µM and inactive = higher.

How the values were obtained:
Assay in all cases: NCI anticancer screen, dose series, 48 h
786-0 = tested on: 786-0
A498 = tested on: A498
A549 = tested on: A549
ACHN = tested on: ACHN
CCRF-CEM = tested on: CCRF-CEM
COLO 205 = tested on: COLO 205
DLD-1 = tested on: DLD-1
DMS-114 = tested on: DMS-114
DMS-273 = tested on: DMS-273
EKVX = tested on: EKVX
HCC 2998 = tested on: HCC 2998
HCT-15 = tested on: HCT-15
HL-60 = tested on: HL-60
HOP-18 = tested on: HOP-18
HT-29 = tested on: HT-29
IGROV-1 = tested on: IGROV-1
K562 = tested on: K562
KM12 = tested on: KM12
LOX IMVI = tested on: LOX IMVI
LXFL 529 = tested on: LXFL 529
M14 = tested on: M14
M19-MEL = tested on: M19-MEL
MOLT-4 = tested on: MOLT-4
Malme-3M = tested on: Malme-3M
NCI-H226 = tested on: NCI-H226
NCI-H23 = tested on: NCI-H23
NCI-H460 = tested on: NCI-H460
OVCAR-3 = tested on: OVCAR-3
OVCAR-4 = tested on: OVCAR-4
OVCAR-5 = tested on: OVCAR-5
OVCAR-8 = tested on: OVCAR-8
RPMI-8226 = tested on: RPMI-8226
RXF 393 = tested on: RXF 393
RXF 631 = tested on: RXF 631
SF-268 = tested on: SF-268
SF-295 = tested on: SF-295
SF-539 = tested on: SF-539
SK-MEL-28 = tested on: SK-MEL-28
SK-MEL-5 = tested on: SK-MEL-5
SK-OV-3 = tested on: SK-OV-3
SN12C = tested on: SN12C
SNB-19 = tested on: SNB-19
SNB-75 = tested on: SNB-75
SNB-78 = tested on: SNB-78
SR = tested on: SR
SW-620 = tested on: SW-620
TK-10 = tested on: TK-10
U-251 = tested on: U-251
UACC-62 = tested on: UACC-62
UO-31 = tested on: UO-31
XF498 = tested on: XF498
CAKI-1 = tested on: CAKI-1
HCT-116 = tested on: HCT-116
HOP-62 = tested on: HOP-62
HOP-92 = tested on: HOP-92
NCI-H522 = tested on: NCI-H522
UACC-257 = tested on: UACC-257
KM-20L2 = tested on: KM-20L2
SK-MEL-2 = tested on: SK-MEL-2

With `CC(C)CCC1CC2C(=O)N(c3ccccc3)C(=O)C2c2[nH]c3ccccc3c21` (configuration not stated) the GI50 (786-0) was 2.88 µM (inactive), the GI50 (A498) was 1.84 µM (inactive) and the GI50 (A549) was 0.412 µM (active). For the same compound, the GI50 (ACHN) was 6.07 µM (inactive), the GI50 (CCRF-CEM) was 1.33 µM (inactive) and the GI50 (COLO 205) was 1.38 µM (inactive). The GI50 (DLD-1) was 2.18 µM (inactive), the GI50 (DMS-114) was 0.6 µM (active) and the GI50 (DMS-273) was 0.281 µM (active). The GI50 (EKVX) was 1.55 µM (inactive), the GI50 (HCC 2998) was 1.42 µM (inactive) and the GI50 (HCT-15) was 2.71 µM. For the same compound, the GI50 (HL-60) was 1.11 µM (active), the GI50 (HOP-18) was 7.06 µM (inactive) and the GI50 (HT-29) was 3.4 µM (inactive). For the same compound, the GI50 (IGROV-1) was 13.4 µM (inactive), the GI50 (K562) was 0.571 µM (active) and the GI50 (KM12) was 1.28 µM (inactive). For the same compound, the GI50 (LOX IMVI) was 1.08 µM (active), the GI50 (LXFL 529) was 6.05 µM (inactive) and the GI50 (M14) was 0.288 µM (active). For the same compound, the GI50 (M19-MEL) was 5.2 µM (inactive), the GI50 (MOLT-4) was 2.77 µM (inactive) and the GI50 (Malme-3M) was 0.871 µM (active). The GI50 (NCI-H226) was 2.66 µM (inactive), the GI50 (NCI-H23) was 2.79 µM (inactive) and the GI50 (NCI-H460) was 1.13 µM (inactive). The GI50 (OVCAR-3) was 0.885 µM (active), the GI50 (OVCAR-4) was 4.76 µM (inactive) and the GI50 (OVCAR-5) was 17.5 µM (inactive). The GI50 (OVCAR-8) was 0.9 µM (active), the GI50 (RPMI-8226) was 1.08 µM (active) and the GI50 (RXF 393) was 0.83 µM (active). The GI50 (RXF 631) was 1.26 µM (inactive), the GI50 (SF-268) was 2.05 µM (inactive) and the GI50 (SF-295) was 0.509 µM (active). For the same compound, the GI50 (SF-539) was 0.711 µM (active), the GI50 (SK-MEL-28) was 4.68 µM (inactive) and the GI50 (SK-MEL-5) was 0.347 µM (active). For the same compound, the GI50 (SK-OV-3) was 1.36 µM (inactive), the GI50 (SN12C) was 2.67 µM (inactive) and the GI50 (SNB-19) was 1.24 µM (inactive). The GI50 (SNB-75) was 2.22 µM (inactive), the GI50 (SNB-78) was 3.45 µM (inactive) and the GI50 (SR) was 3.4 µM (inactive). The GI50 (SW-620) was 0.796 µM (active), the GI50 (TK-10) was 4.53 µM (inactive) and the GI50 (U-251) was 0.455 µM (active). For the same compound, the GI50 (UACC-62) was 6.21 µM (inactive), the GI50 (UO-31) was 6.28 µM (inactive) and the GI50 (XF498) was 0.206 µM (active).
In the case of `Cc1ccc(Cl)c(NC(=O)C(=O)C(C(=O)c2ccncc2)C2OC(=O)c3ccccc32)c1` (configuration not stated), the GI50 (786-0) is reported as > 100 µM (inactive), the GI50 (A498) is reported as > 100 µM (inactive) and the GI50 (A549) is reported as > 100 µM (inactive). For the same compound, the GI50 (ACHN) was > 100 µM (inactive), the GI50 (CAKI-1) was > 100 µM (inactive) and the GI50 (CCRF-CEM) was 0.512 µM (active). For the same compound, the GI50 (COLO 205) was > 100 µM (inactive), the GI50 (DLD-1) was > 100 µM (inactive) and the GI50 (DMS-114) was > 100 µM (inactive). For the same compound, the GI50 (EKVX) was > 100 µM (inactive), the GI50 (HCC 2998) was > 100 µM (inactive) and the GI50 (HCT-116) was > 100 µM (inactive). For the same compound, the GI50 (HCT-15) was over 100 µM, the GI50 (HL-60) was > 100 µM (inactive) and the GI50 (HOP-18) was > 100 µM (inactive). The GI50 (HOP-62) was > 100 µM (inactive), the GI50 (HOP-92) was > 100 µM (inactive) and the GI50 (HT-29) was > 100 µM (inactive). For the same compound, the GI50 (IGROV-1) was > 100 µM (inactive), the GI50 (K562) was > 100 µM (inactive) and the GI50 (LOX IMVI) was > 100 µM (inactive). For the same compound, the GI50 (LXFL 529) was > 100 µM (inactive), the GI50 (M14) was > 100 µM (inactive) and the GI50 (M19-MEL) was > 100 µM (inactive). The GI50 (Malme-3M) was > 100 µM (inactive), the GI50 (NCI-H226) was > 100 µM (inactive) and the GI50 (NCI-H23) was > 100 µM (inactive). For the same compound, the GI50 (NCI-H460) was > 100 µM (inactive), the GI50 (NCI-H522) was > 100 µM (inactive) and the GI50 (OVCAR-4) was > 100 µM (inactive). For the same compound, the GI50 (OVCAR-8) was > 100 µM (inactive), the GI50 (RPMI-8226) was > 100 µM (inactive) and the GI50 (RXF 393) was > 100 µM (inactive). For the same compound, the GI50 (RXF 631) was > 100 µM (inactive), the GI50 (SF-268) was > 100 µM (inactive) and the GI50 (SF-295) was > 100 µM (inactive). The GI50 (SF-539) was > 100 µM (inactive), the GI50 (SK-MEL-28) was > 100 µM (inactive) and the GI50 (SK-MEL-5) was > 100 µM (inactive). The GI50 (SK-OV-3) was > 100 µM (inactive), the GI50 (SN12C) was > 100 µM (inactive) and the GI50 (SNB-75) was > 100 µM (inactive). For the same compound, the GI50 (SNB-78) was > 100 µM (inactive), the GI50 (SR) was > 100 µM (inactive) and the GI50 (SW-620) was > 100 µM (inactive). The GI50 (TK-10) was > 100 µM (inactive), the GI50 (U-251) was > 100 µM (inactive) and the GI50 (UACC-257) was > 100 µM (inactive). The GI50 (UACC-62) was > 100 µM (inactive), the GI50 (UO-31) was > 100 µM (inactive) and the GI50 (XF498) was > 100 µM (inactive).
`CCN(CC)CC(C(=O)Nc1c(C)cccc1C)/C(C)=N\NC(=S)NN` (configuration not stated) was tested, and the GI50 (786-0) was > 100 µM (inactive), the GI50 (A498) was > 100 µM (inactive) and the GI50 (A549) was > 100 µM (inactive). For the same compound, the GI50 (ACHN) was > 100 µM (inactive), the GI50 (CCRF-CEM) was > 100 µM (inactive) and the GI50 (COLO 205) was > 100 µM (inactive). For the same compound, the GI50 (DLD-1) was > 100 µM (inactive), the GI50 (DMS-273) was > 100 µM (inactive) and the GI50 (EKVX) was > 100 µM (inactive). For the same compound, the GI50 (HCC 2998) was > 100 µM (inactive), the GI50 (HCT-116) was > 100 µM (inactive) and the GI50 (HL-60) was > 100 µM (inactive). The GI50 (HOP-62) was > 100 µM (inactive), the GI50 (HOP-92) was > 100 µM (inactive) and the GI50 (HT-29) was > 100 µM (inactive). For the same compound, the GI50 (IGROV-1) was > 100 µM (inactive), the GI50 (K562) was > 100 µM (inactive) and the GI50 (KM-20L2) was > 100 µM (inactive). The GI50 (KM12) was > 100 µM (inactive), the GI50 (LOX IMVI) was > 100 µM (inactive) and the GI50 (LXFL 529) was > 100 µM (inactive). The GI50 (M14) was > 100 µM (inactive), the GI50 (M19-MEL) was > 100 µM (inactive) and the GI50 (MOLT-4) was > 100 µM (inactive). For the same compound, the GI50 (Malme-3M) was > 100 µM (inactive), the GI50 (NCI-H226) was > 100 µM (inactive) and the GI50 (NCI-H23) was > 100 µM (inactive). For the same compound, the GI50 (NCI-H460) was > 100 µM (inactive), the GI50 (NCI-H522) was > 100 µM (inactive) and the GI50 (OVCAR-3) was > 100 µM (inactive). For the same compound, the GI50 (OVCAR-5) was > 100 µM (inactive), the GI50 (OVCAR-8) was > 100 µM (inactive) and the GI50 (RPMI-8226) was > 100 µM (inactive). The GI50 (RXF 393) was > 100 µM (inactive), the GI50 (RXF 631) was > 100 µM (inactive) and the GI50 (SF-268) was > 100 µM (inactive). The GI50 (SF-295) was > 100 µM (inactive), the GI50 (SF-539) was > 100 µM (inactive) and the GI50 (SK-MEL-28) was > 100 µM (inactive). The GI50 (SK-MEL-2) was > 100 µM (inactive), the GI50 (SK-MEL-5) was > 100 µM (inactive) and the GI50 (SK-OV-3) was > 100 µM (inactive). The GI50 (SNB-75) was > 100 µM (inactive), the GI50 (SW-620) was > 100 µM (inactive) and the GI50 (TK-10) was > 100 µM (inactive). For the same compound, the GI50 (U-251) was > 100 µM (inactive), the GI50 (UACC-257) was > 100 µM (inactive) and the GI50 (UACC-62) was > 100 µM (inactive). For the same compound, the GI50 (UO-31) was > 100 µM (inactive) and the GI50 (XF498) was > 100 µM (inactive).
